Measurements as given in patent US11279699B2 (Suzhou Longbiotech Pharmaceuticals Co., Ltd., priority 2016, dated 2022).

Tests used:
Format in all cases: biochemical
JAK1 = JAK1 (Homo sapiens (Human), UniProt P23458); experiment: Inhibition of JAK, luminescence kinase assay (ADP-Glo), JAK1; settings: for IC50: purified recombinant JAK1
Protocol: (§1) The study of the effect of compounds on the activity of purified recombinant JAK was performed by studying the inhibitory activity of the compounds on JAK from the enzymatic level. The experimental principle is to use a luminescence kinase assay to detect the ADP content produced by the reaction of JAK with the substrate Poly (4:1 Glu, Tyr) peptide: after ADP is converted to ATP, ATP can act as a substrate for the Ultra-Glo luciferase catalytic reaction, producing an optical signal. The luminescence signal is positively correlated with the amount of ADP and kinase activity. Therefore, the inhibitory effect of the compounds on the recombinant JAK was determined by observing the luminescence signal produced by the reaction of JAK and the substrate, and was expressed by IC50.
(§2) Experimental method: 10 different concentrations of compounds were incubated with JAK1, JAK2 and JAK3, respectively, for 60 minutes at 37° C. The substrate and ATP were then added, mixed, and reacted at 37° C. for 50 minutes. 25 μl of ADP-Glo™ was added and mixed for 2 minutes. The reaction was carried out for 50 minutes at room temperature. Further, 50 μl of the detection reagent was added and mixed for 2 minutes, and incubated at room temperature for 50 minutes, and detected by a chemiluminometer.

JAK2 = JAK2 (Homo sapiens (Human), UniProt O60674); experiment: Inhibition of JAK, luminescence kinase assay (ADP-Glo), JAK2; settings: purified recombinant JAK2
Sequence of JAK2 (O60674 whole entry): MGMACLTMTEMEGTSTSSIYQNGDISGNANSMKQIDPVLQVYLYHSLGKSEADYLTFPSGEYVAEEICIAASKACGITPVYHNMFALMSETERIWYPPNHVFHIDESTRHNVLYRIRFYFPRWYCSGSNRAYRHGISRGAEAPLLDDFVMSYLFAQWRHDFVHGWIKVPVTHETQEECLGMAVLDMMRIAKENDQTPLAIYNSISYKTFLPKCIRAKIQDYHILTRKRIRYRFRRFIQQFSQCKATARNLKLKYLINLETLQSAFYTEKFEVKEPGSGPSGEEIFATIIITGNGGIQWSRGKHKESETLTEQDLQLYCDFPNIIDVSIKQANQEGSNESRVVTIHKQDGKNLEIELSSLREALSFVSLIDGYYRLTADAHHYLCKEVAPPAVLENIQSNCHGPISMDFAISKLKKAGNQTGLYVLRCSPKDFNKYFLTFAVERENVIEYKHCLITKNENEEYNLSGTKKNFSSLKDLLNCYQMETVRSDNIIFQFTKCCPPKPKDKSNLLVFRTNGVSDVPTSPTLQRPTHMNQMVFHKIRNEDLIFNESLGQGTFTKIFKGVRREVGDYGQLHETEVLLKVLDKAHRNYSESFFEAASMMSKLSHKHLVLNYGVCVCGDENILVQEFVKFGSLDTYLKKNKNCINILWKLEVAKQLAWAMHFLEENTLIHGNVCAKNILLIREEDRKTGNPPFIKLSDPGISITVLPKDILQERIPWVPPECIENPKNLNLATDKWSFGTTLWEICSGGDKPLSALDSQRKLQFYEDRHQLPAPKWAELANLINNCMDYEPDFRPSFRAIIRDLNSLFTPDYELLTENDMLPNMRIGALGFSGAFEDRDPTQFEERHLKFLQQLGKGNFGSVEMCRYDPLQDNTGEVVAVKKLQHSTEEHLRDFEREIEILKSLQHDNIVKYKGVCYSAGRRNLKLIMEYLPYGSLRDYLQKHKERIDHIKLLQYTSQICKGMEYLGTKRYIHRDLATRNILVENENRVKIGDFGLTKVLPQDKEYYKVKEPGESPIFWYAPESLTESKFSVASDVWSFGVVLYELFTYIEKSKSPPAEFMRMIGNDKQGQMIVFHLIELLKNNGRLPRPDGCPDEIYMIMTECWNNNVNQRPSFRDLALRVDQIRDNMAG
Protocol: as §1, §2

JAK3 = JAK3 (Homo sapiens (Human), UniProt P52333); experiment: Inhibition of JAK, luminescence kinase assay (ADP-Glo), JAK3; settings: purified recombinant JAK3
Sequence of JAK3 (P52333 whole entry): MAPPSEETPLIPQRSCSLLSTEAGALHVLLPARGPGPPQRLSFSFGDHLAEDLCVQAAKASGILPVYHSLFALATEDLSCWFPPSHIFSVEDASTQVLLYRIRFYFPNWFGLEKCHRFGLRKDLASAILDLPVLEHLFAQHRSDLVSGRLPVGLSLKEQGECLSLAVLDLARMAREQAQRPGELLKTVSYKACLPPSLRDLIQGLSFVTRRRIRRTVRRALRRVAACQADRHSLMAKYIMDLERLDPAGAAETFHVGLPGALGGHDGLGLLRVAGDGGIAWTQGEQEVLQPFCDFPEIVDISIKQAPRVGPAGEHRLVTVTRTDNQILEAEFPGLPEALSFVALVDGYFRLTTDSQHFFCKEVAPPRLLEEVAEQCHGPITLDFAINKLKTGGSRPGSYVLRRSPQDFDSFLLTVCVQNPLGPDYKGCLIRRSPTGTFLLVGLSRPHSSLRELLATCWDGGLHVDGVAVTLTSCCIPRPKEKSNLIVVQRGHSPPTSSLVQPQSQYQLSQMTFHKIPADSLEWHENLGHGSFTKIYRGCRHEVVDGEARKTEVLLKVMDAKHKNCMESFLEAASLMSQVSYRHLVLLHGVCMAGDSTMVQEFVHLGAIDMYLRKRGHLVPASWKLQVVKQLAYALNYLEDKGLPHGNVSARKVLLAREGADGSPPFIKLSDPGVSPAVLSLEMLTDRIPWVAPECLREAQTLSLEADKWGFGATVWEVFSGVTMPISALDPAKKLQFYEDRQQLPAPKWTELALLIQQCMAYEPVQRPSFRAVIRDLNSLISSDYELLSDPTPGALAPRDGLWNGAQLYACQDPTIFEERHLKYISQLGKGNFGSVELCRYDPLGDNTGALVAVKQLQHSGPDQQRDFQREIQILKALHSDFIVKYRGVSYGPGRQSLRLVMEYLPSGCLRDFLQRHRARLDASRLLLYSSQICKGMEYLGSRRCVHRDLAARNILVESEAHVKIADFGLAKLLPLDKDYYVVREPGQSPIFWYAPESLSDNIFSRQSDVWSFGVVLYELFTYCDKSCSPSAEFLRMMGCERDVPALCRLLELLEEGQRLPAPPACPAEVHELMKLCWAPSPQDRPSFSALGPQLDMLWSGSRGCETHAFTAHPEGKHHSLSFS
Protocol: as §1, §2

[1] = Table 2, same experimental conditions

Sequence of JAK1 (P23458 whole entry): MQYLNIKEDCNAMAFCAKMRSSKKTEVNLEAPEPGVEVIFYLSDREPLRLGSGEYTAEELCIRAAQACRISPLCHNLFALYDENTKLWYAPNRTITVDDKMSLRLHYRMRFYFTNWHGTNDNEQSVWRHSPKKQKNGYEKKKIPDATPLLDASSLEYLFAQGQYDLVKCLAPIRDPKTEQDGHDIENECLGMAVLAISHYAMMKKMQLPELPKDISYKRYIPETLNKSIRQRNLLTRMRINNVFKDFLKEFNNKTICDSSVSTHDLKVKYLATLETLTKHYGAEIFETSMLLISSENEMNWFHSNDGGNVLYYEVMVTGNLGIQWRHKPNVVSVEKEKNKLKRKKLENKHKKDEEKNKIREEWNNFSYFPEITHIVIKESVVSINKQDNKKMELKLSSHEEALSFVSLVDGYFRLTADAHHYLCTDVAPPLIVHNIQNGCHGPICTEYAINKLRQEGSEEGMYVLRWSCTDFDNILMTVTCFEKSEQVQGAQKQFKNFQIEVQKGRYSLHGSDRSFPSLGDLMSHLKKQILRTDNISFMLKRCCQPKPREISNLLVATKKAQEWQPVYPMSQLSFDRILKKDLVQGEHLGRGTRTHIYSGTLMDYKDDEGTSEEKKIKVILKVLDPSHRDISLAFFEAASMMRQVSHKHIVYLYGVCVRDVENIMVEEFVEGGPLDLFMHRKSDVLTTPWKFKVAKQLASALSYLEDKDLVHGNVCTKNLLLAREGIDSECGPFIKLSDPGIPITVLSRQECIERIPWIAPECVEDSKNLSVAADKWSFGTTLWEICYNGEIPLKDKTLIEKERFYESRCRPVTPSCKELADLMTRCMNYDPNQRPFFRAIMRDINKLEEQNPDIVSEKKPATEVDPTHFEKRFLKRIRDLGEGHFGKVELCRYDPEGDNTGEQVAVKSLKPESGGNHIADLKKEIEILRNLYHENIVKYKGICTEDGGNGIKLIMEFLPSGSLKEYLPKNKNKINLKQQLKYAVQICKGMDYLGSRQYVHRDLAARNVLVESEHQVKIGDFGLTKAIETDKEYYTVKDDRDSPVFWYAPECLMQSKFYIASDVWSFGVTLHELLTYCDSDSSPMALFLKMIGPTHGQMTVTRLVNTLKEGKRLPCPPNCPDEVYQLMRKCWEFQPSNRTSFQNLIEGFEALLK

Row | Compound | inhibitory activity against JAK1 relative to JAK2 (selectivity) (JAK1; JAK1 versus JAK2, from Table 2) [times] | IC50 (JAK1; Table 1) [nM] | IC50 (JAK1; [1]) [nM] | IC50 (JAK2; Table 1) [nM] | IC50 (JAK2; [1]) [nM] | IC50 (JAK3; Table 1) [nM] | IC50 (JAK3; [1]) [nM]
1 | CS(=O)(=O)C1CN(Cc2ccc(-c3cccc4nc(NC(=O)C5CC5)nn34)cc2)C1 [Example 1, N-(5-(4-((3-(methylsulfonyl)azetidin-1-yl)methyl)phenyl)-[1,2,4]triazolo[1,5-a]pyridin-2-yl]cyclopropanecarboxamide] | 10 | 20 to 50 | 48 | > 50 | 498 | > 50 | 2430
2 | CS(=O)(=O)C1CN(Cc2ccc(-c3cccc4nc(NC(=O)C5CC5)nn34)cc2F)C1 [Example 2, N-(5-(3-fluoro-4-((3-(methylsulfonyl)azetidin-1-yl)methyl)phenyl)-[1,2,4]triazolo[1,5-a]pyridin-2-yl]cyclopropanecarboxamide] |  | 20 to 50 |  |  |  |  | 
3 | CS(=O)(=O)C1CN(Cc2c(F)cc(-c3cccc4nc(NC(=O)C5CC5)nn34)cc2F)C1 [Example 3, N-(5-(3,5-difluoro-4-((3-(methylsulfonyl)azetidin-1-yl)methyl)phenyl)-[1,2,4]triazolo[1,5-a]pyridin-2-yl]cyclopropanecarboxamide] |  | 20 to 50 |  | > 50 |  | > 50 | 
4 | CC(C)C(=O)Nc1nc2cccc(-c3ccc(CN4CC(S(=O)(=O)C5CC5)C4)cc3)n2n1 [Example 5, N-(5-(4-((3-(cyclopropylsulfonyl)azetidin-1-yl)methyl)phenyl)-[1,2,4]triazolo[1,5-a]pyridin-2-yl]isobutyramide] |  | 20 to 50 |  | > 50 |  |  | 
5 | CCS(=O)(=O)C1CN(Cc2ccc(-c3cccc4nc(NC(=O)C(C)C)nn34)cc2)C1 [Example 6, N-(5-(4-((3-(ethylsulfonyl)azetidin-1-yl)methyl)phenyl)-[1,2,4]triazolo[1,5-a]pyridin-2-yl]isobutyramide] |  | > 50 |  | > 50 |  | > 50 | 
6 | CCS(=O)(=O)C1CN(Cc2ccc(-c3cccc4nc(NC(=O)C5CC5)nn34)cc2)C1 [Example 7, N-(5-(4-((3-(ethylsulfonyl)azetidin-1-yl)methyl)phenyl)-[1,2,4]triazolo[1,5-a]pyridin-2-yl]cyclopropanecarboxamide] |  | 20 to 50 |  | > 50 |  |  | 
7 | CS(=O)(=O)C1CN(Cc2ccc(-c3cccc4nc(N)nn34)cc2)C1 [Example 8, 5-(4-((3-(methylsulfonyl)azetidin-1-yl)methyl)phenyl)-[1,2,4]triazolo[1,5-a]pyridin-2-ylamine] |  | 20 to 50 |  | > 50 |  | 20 to 50 | 
8 | CS(=O)(=O)C1CN(Cc2ccc(-c3cccn4nc(NC(=O)C5CC5)nc34)cc2)C1 [Example 9, N-(8-(4-((3-(methylsulfonyl)azetidin-1-yl)methyl)phenyl)-[1,2,4]triazolo[1,5-a]pyridin-2-yl]cyclopropanecarboxamide] |  | 20 to 50 |  | > 50 |  | > 50 | 
9 | O=C(Nc1nc2c(-c3ccc(CN4CC(S(=O)(=O)C5CC5)C4)cc3)cccn2n1)C1CC1 [Example 10, N-(8-(4-((3-(cyclopropylsulfonyl)azetidin-1-yl)methyl)phenyl)-[1,2,4]triazolo[1,5-a]pyridin-2-yl]cyclopropanecarboxamide] |  | > 50 |  | > 50 |  | > 50 | 
10 | CCS(=O)(=O)C1CN(Cc2ccc(-c3cccn4nc(NC(=O)C5CC5)nc34)cc2)C1 [Example 11, N-(8-(4-((3-(ethylsulfonyl)azetidin-1-yl)methyl)phenyl)-[1,2,4]triazolo[1,5-a]pyridin-2-yl]cyclopropanecarboxamide] |  | 20 to 50 |  | > 50 |  | > 50 | 
11 | CC(C)C(=O)Nc1nc2c(-c3ccc(CN4CC(S(C)(=O)=O)C4)cc3)cccn2n1 [Example 12] |  | 20 to 50 |  | > 50 |  | > 50 | 
12 | CC(C)C(=O)Nc1nc2c(-c3ccc(CN4CC(S(=O)(=O)C5CC5)C4)cc3)cccn2n1 [Example 13, N-(8-(4-((3-(cyclopropylsulfonyl)azetidin-1-yl)methyl)phenyl)-[1,2,4]triazolo[1,5-a]pyridin-2-yl]isobutyramide] |  | 20 to 50 |  | > 50 |  | > 50 | 
13 | CCS(=O)(=O)C1CN(Cc2ccc(-c3cccn4nc(NC(=O)C(C)C)nc34)cc2)C1 [Example 14, N-(8-(4-((3-(ethylsulfonyl)azetidin-1-yl)methyl)phenyl)-[1,2,4]triazolo[1,5-a]pyridin-2-yl]isobutyramide] |  | 20 to 50 |  | > 50 |  | > 50 | 
14 | CS(=O)(=O)C1CN(Cc2ccc(-c3cccn4nc(NC(=O)C5CC5)nc34)cc2F)C1 [Example 15, N-(8-(3-fluoro-4-((3-(methylsulfonyl)azetidin-1-yl)methyl)phenyl)-[1,2,4]triazolo[1,5-a]pyridin-2-yl]cyclopropanecarboxamide] |  | 20 to 50 |  |  |  |  | 
15 | CS(=O)(=O)C1CN(Cc2c(F)cc(-c3cccn4nc(NC(=O)C5CC5)nc34)cc2F)C1 [Example 16, N-(8-(3,5-difluoro-4-((3-(methylsulfonyl)azetidin-1-yl)methyl)phenyl)-[1,2,4]triazolo[1,5-a]pyridin-2-yl]cyclopropanecarboxamide] |  | > 50 |  | > 50 |  | > 50 | 
16 | CS(=O)(=O)C1CN(Cc2ccc(-c3cccn4nc(N)nc34)cc2)C1 [Example 17, 8-(4-((3-(methylsulfonyl)azetidin-1-yl)methyl)phenyl)-[1,2,4]triazolo[1,5-a]pyridin-2-ylamine] |  | 20 to 50 |  | > 50 |  | 20 to 50 | 
17 | CCS(=O)(=O)C1CN(Cc2ccc(-c3cccn4nc(N)nc34)cc2)C1 [Example 18, 8-(4-((3-(ethylsulfonyl)azetidin-1-yl)methyl)phenyl)-[1,2,4]triazolo[1,5-a]pyridin-2-ylamine] |  | > 50 |  | > 50 |  | > 50 | 
18 | O=S1(=O)CCN(Cc2ccc(-c3ncnc4[nH]ccc34)cc2)CC1 [Example 19, 4-(4-(7H-pyrrolo[2,3-d]pyrimidin-4-yl)benzyl)thiomorpholine 1,1-dioxide] |  | < 20 |  | > 50 |  | > 50 | 
